Earlier results on two compounds are cited in US20150196506A1, “CHEWING GUM FORMULATIONS COMPRISING DAPOXETINE AND TADALAFIL” (Sanovell Ilac Sanayi Ve Ticaret Anonim Sirketi, priority 2012, published 2015).

SMILES strings stand for the structures.

The conditions of data set [1]: following oral administration.
The conditions of data set [2]: similarly poorly dissolved in gastric juice.

Turning to `CN(C)[C@@H](CCOc1cccc2ccccc12)c1ccccc1` [dapoxetine], the “binding to plasma proteins” value in data set [1] is given as “almost completely”.

Regarding `CN1CC(=O)N2[C@H](c3ccc4c(c3)OCO4)c3[nH]c4ccccc4c3C[C@@H]2C1=O` [Tadalafil, (6R-trans)-6-(1,3-benzodioxol-5-yl)-2,3,6,7,12,12a-hexahydro-2-methyl-pyrazino [1′,2′:1,6] pyrido[3,4-b]indole-1,4-dione], in data set [2], the solubility in water entry is recorded as “poorly soluble in water”.
